From US9796753B2, “N-substituted indenoisoquinolines and syntheses thereof” (Purdue Research Foundation, priority 2005, dated 2017)
Where two headings read alike, the source gives them in different places.

Key:
Assay type in all cases: cell-based
[1] = system: CNS SF-539; experiment: COMPARE screening (NCI human cancer cell line screen), cytotoxicity GI50
Description: (§1) Selected compounds were tested for antiproliferative activity in the National Cancer Institute's developmental therapeutics assay 60 cell line screen (NCI60). The cells were incubated with the tested compounds at 100, 10, 1, 0.1, and 0.01 μM concentrations for 48 h before treatment with sulforhodamine B dye. Optical densities were recorded, and their ratios relative to that of the control were plotted as percentage growth against the log 10 of the tested compound concentrations.

[2] = system: colon HCT-116; experiment: as above
Description: as §1

[3] = system: lung HOP-62; experiment: as above
Description: as §1

[4] = system: melanoma UACC-62; experiment: as above
Description: as §1

[5] = system: ovarian OVCAR-3; experiment: as above
Description: as §1

[6] = system: prostate DU-145; experiment: as above
Description: as §1

[7] = system: renal SN12C; experiment: as above
Description: as §1

[8] = system: breast MDA-MB-435; experiment: as above
[9] = system: all human cancer cell lines successfully tested; experiment: NCI screen mean graph midpoint (MGM) for growth inhibition
Description: COMPARE screening. The compounds described herein were examined for antiproliferative activity against the human cancer cell lines in the National Cancer Institute screen (COMPARE screening), in which the activity of each compound was evaluated with approximately 55 different cancer cell lines of diverse tumor origins. […] Therefore, the MGM value represents an overall assessment of toxicity of the compound across numerous cell lines.
as §1
The cytotoxicities of the compounds to cultured cancer cells were measured in the National Cancer Institute's 60 cell line assay (a.k.a. NCI-60).

[10] = Table 1, average GI50 of all cell lines tested (approximately 55), test range 10^−8 to 10^−4 molar
[11] = CNS SF-539, concentration corresponding to 50% growth inhibition, read-out: cytotoxicity (GI50 in μM) CNS SF-539
[12] = colon HCT-116, concentration corresponding to 50% growth inhibition, read-out: cytotoxicity (GI50 in μM) colon HCT-116
[13] = lung HOP-62, concentration corresponding to 50% growth inhibition, read-out: cytotoxicity (GI50 in μM) lung HOP-62
[14] = melanoma UACC-62, concentration corresponding to 50% growth inhibition, read-out: cytotoxicity (GI50 in μM) melanoma UACC-62
[15] = ovarian OVCAR-3, concentration corresponding to 50% growth inhibition, read-out: cytotoxicity (GI50 in μM) ovarian OVCAR-3
[16] = prostate DU-145, concentration corresponding to 50% growth inhibition, read-out: cytotoxicity (GI50 in μM) prostate DU-145
[17] = renal SN12C, concentration corresponding to 50% growth inhibition, read-out: cytotoxicity (GI50 in μM) renal SN12C
[18] = breast MDA-MB-435, concentration corresponding to 50% growth inhibition, read-out: cytotoxicity (GI50 in μM) breast MDA-MB-435
[19] = all human cancer cell lines successfully tested

Molecule	GI50 [1]	GI50 [2]	GI50 [3]	GI50 [4]	GI50 [5]	GI50 [6]	GI50 [7]	GI50 [8]	MGM (mean graph midpoint for growth inhibition) [9, 10]	further results
COc1ccc2c(c1)C(=O)c1c-2n(CCCN(C)C)c(=O)c2cc([N+](=O)[O-])ccc12 [Compound 5bp]	< 0.01 µM	< 0.01 µM	< 0.01 µM	< 0.01 µM	0.028 µM	< 0.01 µM	< 0.01 µM	< 0.01 µM	0.020 ± 0.001 µM	
COc1ccc2c(c1)C(=O)c1c-2n(CCCCl)c(=O)c2cc([N+](=O)[O-])ccc12 [Compound 5ba]	0.027 µM	0.794 µM	0.295 µM	< 0.01 µM	3.39 µM	0.036 µM	< 0.01 µM	3.24 µM	0.178 ± 0.012 µM	
COc1cc2c3c(n(CCCNCCCNCCCn4c5c(c6cc(OC)c(OC)cc6c4=O)C(=O)c4ccccc4-5)c(=O)c2cc1OC)-c1ccccc1C3=O.O=C(O)C(F)(F)F.O=C(O)C(F)(F)F [Compound 14l, Bis-1,3-{(5,6-dihydro-5,11-diketo-2,3-dimethoxy-11H-indeno[1,2-c]isoquinoline)-6-propylamino}propane Bis{trifluoroacetate)]										GI50 [1, 11]: 4.17 µM; GI50 [2, 12]: 0.331 µM; GI50 [3, 13]: 1.51 µM; GI50 [4, 14]: 4.27 µM; GI50 [5, 15]: 9.55 µM; GI50 [6, 16]: 19.5 µM; GI50 [7, 17]: 0.24 µM; GI50 [8, 18]: 3.98 µM; MGM (mean GI50 across cell lines) [9, 19]: 6030 nM
Nn1c2c(c3ccccc3c1=O)C(=O)c1ccccc1-2 [Compound 5z, 6-Amino-5,6-dihydro-5,11-diketo-11H-indeno[1,2-c]isoquinoline]										GI50 ([1]; Homo sapiens, CNSSF-539, read-out: cytotoxicity (GI50) CNS SF-539): 28.2 µM; GI50 ([2]; Homo sapiens, HCT-116, read-out: cytotoxicity (GI50) colon HCT-116): > 50.1 µM; GI50 ([3]; Homo sapiens, HOP-62, read-out: cytotoxicity (GI50) lung HOP-62): 24.5 µM; GI50 ([4]; Homo sapiens, UACC-62, read-out: cytotoxicity (GI50) melanoma UACC-62): > 50.1 µM; GI50 ([5]; Homo sapiens, OVCAR-3, read-out: cytotoxicity (GI50) ovarian OVCAR-3): > 50.1 µM; GI50 ([6]; Homo sapiens, DU-145, read-out: cytotoxicity (GI50) prostate DU-145): > 50.1 µM; GI50 ([7]; Homo sapiens, SN12C, read-out: cytotoxicity (GI50) renal SN12C): > 50.1 µM; GI50 ([8]; Homo sapiens, MDA-MB-435, read-out: cytotoxicity (GI50) breast MDA-MB-435): > 50.1 µM; MGM (mean GI50 across cell lines) [9, 10]: 39800 nM
COc1ccc2c(c1)C(=O)c1c-2n(CCCn2ccnc2)c(=O)c2ccccc12 [Compound 5bs]	0.178 µM	0.11 µM	0.056 µM	0.071 µM	1.66 µM	0.204 µM	0.676 µM	0.646 µM	0.416 ± 0.134 µM	
CC(C)(C)OC(=O)NCCCCCCCCCCn1c2c(c3ccccc3c1=O)C(=O)c1ccccc1-2 [Compound 5ai, 6-(10′-tert-BOC-Aminodecyl)-5,6-dihydro-5,1-dioxo-11H-indeno[1,2-c]isoquinoline]	42.7 µM	60.3 µM	28.8 µM	43.6 µM	> 100 µM	97.7 µM	> 100 µM	> 100 µM		MGM (mean GI50 across cell lines) [9, 10]: 52500 nM
Cl.O=C1c2ccccc2-c2c1c1ccc([N+](=O)[O-])cc1c(=O)n2CCCNCCO [Compound 5bl]	> 100 µM	0.027 µM	0.031 µM	0.2 µM	1.35 µM	> 100 µM	0.229 µM	1.07 µM	0.296 ± 0.067 µM	
O=C(O)C(F)(F)F.O=C(O)C(F)(F)F.O=C1c2ccccc2-c2c1c1ccc([N+](=O)[O-])cc1c(=O)n2CCNCCCNCCn1c2c(c3ccc([N+](=O)[O-])cc3c1=O)C(=O)c1ccccc1-2 [Compound 14m, Bis-1,3-{(5,6-dihydro-5,11-diketo-3-nitro-11H-indeno[1,2-c]isoquinoline)-6-ethylamino}propane Bis{trifluoroacetate)]										GI50 [1, 11]: 0.324 µM; GI50 [2, 12]: 0.044 µM; GI50 [3, 13]: 0.631 µM; GI50 [4, 14]: 0.603 µM; GI50 [5, 15]: 0.245 µM; GI50 [6, 16]: 0.813 µM; GI50 [7, 17]: 0.123 µM; GI50 [8, 18]: 0.437 µM; MGM (mean graph midpoint for growth inhibition) [9, 19]: 0.354 ± 0.184 µM
O=C(O)C(F)(F)F.O=C(O)C(F)(F)F.O=C1c2ccccc2-c2c1c1ccccc1c(=O)n2CCCN1CCN(CCCn2c3c(c4ccccc4c2=O)C(=O)c2ccccc2-3)CC1 [Compound 14f, Bis-1,4-{(5,6-dihydro-5,11-diketo-11H-indeno[1,2-c]isoquinoline)-6-propyl}piperazine Bis(trifluoroacetate)]	> 100 µM	35.5 µM	12.9 µM	> 100 µM	> 100 µM	24 µM	15.5 µM	> 100 µM		MGM (mean graph midpoint for growth inhibition) [9, 19]: 44.8 ± 2.05 µM
O=C1c2ccccc2-c2c1c1ccc([N+](=O)[O-])cc1c(=O)n2CCCN1CCOCC1 [Compound 5bi]	0.095 µM	0.038 µM	0.021 µM	0.38 µM		0.085 µM	0.309 µM	1.23 µM	0.632 ± 0.029 µM	
CC(C)(C)OC(=O)NCCCCCCCCn1c2c(c3ccccc3c1=O)C(=O)c1ccccc1-2 [Compound 5ag, 6-(8′-tert-BOC-Aminooctyl)-5,6-dihydro-5,11-dioxo-11H-indeno[1,2-c]isoquinoline]	8.71 µM	25.7 µM	10.7 µM	15.5 µM		> 50.1 µM	> 50.1 µM	> 50.1 µM		MGM (mean GI50 across cell lines) [9, 10]: 19900 nM
COc1ccc2c(c1)C(=O)c1c-2n(CCCNCCO)c(=O)c2cc([N+](=O)[O-])ccc12.Cl [Compound 5bm]	< 0.01 µM		< 0.01 µM	< 0.01 µM	< 0.01 µM	< 0.03 µM	0.012 µM	< 0.01 µM		MGM (mean GI50 across cell lines) [9, 10]: 16 nM
Bis-1,2-{(5,6-dihydro-5,11-diketo-11H-indeno[1,2-c]isoquinoline)-6-ethylamino-ethylamino}ethane Tetra(trifluoroacetate) [Compound 14j]	0.012 µM	0.2 µM	0.977 µM		0.032 µM	0.085 µM		0.126 µM		MGM (mean graph midpoint for growth inhibition) [9, 19]: 0.262 ± 0.100 µM
COc1cc2c3c(n(CCCn4ccnc4)c(=O)c2cc1OC)-c1cc2c(cc1C3=O)OCO2.Cl [Compound 5l, Hydrochloride]	0.037 µM	< 0.01 µM	< 0.01 µM	< 0.01 µM		< 0.01 µM	< 0.01 µM	0.02 µM		GI50 ([5]; Table 1, concentration corresponding to 50% growth inhibition, read-out: cytotoxicity (GI50) ovarian OVCAR-3): 0.085 µM
COc1ccc2c(c1)C(=O)c1c-2n(CCCN)c(=O)c2ccccc12.Cl [Compound 5bg]	0.038 µM	< 0.01 µM	< 0.01 µM		0.028 µM	0.014 µM	< 0.01 µM	0.059 µM	0.048 ± 0.024 µM	
Cl.O=C1c2ccccc2-c2c1c1ccccc1c(=O)n2CCCNCCO [Compound 5bo]	0.55 µM		0.195 µM	0.178 µM	0.55 µM	0.174 µM	0.269 µM	0.49 µM		MGM (mean GI50 across cell lines) [9, 10]: 339 nM
COc1cc2c3c(n(CCCNCCCNCCCn4c5c(c6ccccc6c4=O)C(=O)c4ccccc4-5)c(=O)c2cc1OC)-c1cc2c(cc1C3=O)OCO2.O=C(O)C(F)(F)F.O=C(O)C(F)(F)F [Compound 17a, 1,3-{6-(3-Amino-1-propyl)-5,6-dihydro-2,3-dimethoxy-8,9-methylenedioxy-5,1-dioxo-11H-indeno[1,2-c]isoquinoline}-{5′,6′-Dihydro-6′-(3′-amino-1′-propyl)-5′,11′-dioxo-11′H-indeno[1,2-c]isoquinoline}propane Bis(trifluoroacetate)]										GI50 [1, 11]: < 0.01 µM; GI50 [2, 12]: 0.022 µM; GI50 [3, 13]: 0.191 µM; GI50 [5, 15]: < 0.01 µM; GI50 [6, 16]: 0.01 µM; GI50 [8, 18]: 0.155 µM; MGM (mean graph midpoint for growth inhibition) [9, 19]: 0.046 ± 0.010 µM
